Laboratory results: PubChem BioAssay AID248 (DTP/NCI, 2004)
Toxic doses and inconclusive results are not listed. Rule as the data show it: active = T/C of 150% or more; inactive = T/C below 125%.

System: L1210 leukemia ip in BDF1 mice, survival T/C
Assay: NCI In Vivo Anticancer Drug Screen. Data for tumor model L1210 Leukemia (intraperitoneal) in B6D2F1 (BDF1) mice
Conditions: endpoint: mean survival time, higher = longer survival
Method in brief: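 In this screen, tumor-bearing mice given compound are compared to those given vehicle, and their survival values are reported as a treated-to-control quotient.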

[1] = dose: 50.0 mg/kg/injection, schedule: Q01DX001 (ip), vehicle: saline
[2] = dose: 100.0 mg/kg/injection, schedule: Q01DX001 (ip), vehicle: saline
[3] = dose: 200.0 mg/kg/injection, schedule: Q01DX001 (ip), vehicle: saline
[4] = dose: 100.0 mg/kg/injection, schedule: Q01DX009 (ip), vehicle: saline
[5] = dose: 100.0 mg/kg/injection, schedule: Q04DX003 (ip), vehicle: saline
[6] = dose: 200.0 mg/kg/injection, schedule: Q01DX009 (ip), vehicle: saline
[7] = dose: 200.0 mg/kg/injection, schedule: Q04DX003 (ip), vehicle: saline
[8] = dose: 400.0 mg/kg/injection, schedule: Q01DX009 (ip), vehicle: saline
[9] = dose: 400.0 mg/kg/injection, schedule: Q04DX003 (ip), vehicle: saline
[10] = dose: 100.0 mg/kg/injection, schedule: Q01DX001 (ip), vehicle: Klucel (hydroxypropylcellulose) (HPC)
[11] = dose: 200.0 mg/kg/injection, schedule: Q01DX001 (ip), vehicle: Klucel (hydroxypropylcellulose) (HPC)
[12] = dose: 400.0 mg/kg/injection, schedule: Q01DX001 (ip), vehicle: Klucel (hydroxypropylcellulose) (HPC)

Measured: T/C

c1ccc(C2=NN=C(c3ccccc3)CCC2)cc1
inactive: dose: 100.0 mg/kg/injection, schedule: Q04DX003 (ip), vehicle: acetone 95 % of control | dose: 200.0 mg/kg/injection, schedule: Q04DX003 (ip), vehicle: acetone 86 % of control | dose: 400.0 mg/kg/injection, schedule: Q04DX003 (ip), vehicle: acetone 98 % of control

C[C@@H](c1ccccc1)[C@@H](C(=O)O)c1ccccc1
inactive: [1] 109 % of control | [2] 94 % of control | [3] 97 % of control | dose: 400.0 mg/kg/injection, schedule: Q01DX001 (ip), vehicle: saline 97 % of control

O=C1CCCC2C(=O)CCCC12 (stereo not given)
inactive: dose: 100.0 mg/kg/injection, schedule: Q## X003 (ip), vehicle: saline 102 % of control | dose: 200.0 mg/kg/injection, schedule: Q## X003 (ip), vehicle: saline 98 % of control | dose: 400.0 mg/kg/injection, schedule: Q## X003 (ip), vehicle: saline 101 % of control

O=[N+]([O-])c1cccc(S(=O)(=O)OCn2ncc3ccc([N+](=O)[O-])cc32)c1
inactive: dose: 5.0 mg/kg/injection, schedule: Q01DX001 (ip), vehicle: saline 94 % of control | dose: 10.0 mg/kg/injection, schedule: Q01DX001 (ip), vehicle: saline 100 % of control | dose: 20.0 mg/kg/injection, schedule: Q01DX001 (ip), vehicle: saline 100 % of control | dose: 40.0 mg/kg/injection, schedule: Q01DX001 (ip), vehicle: saline 97 % of control

O=S(=O)(O)c1ccccc1/C=N\N=C\c1ccccc1S(=O)(=O)O
inactive: [4] 107 % of control | [5] 107 % of control | [6] 112 % of control | [7] 107 % of control | dose: 265.0 mg/kg/injection, schedule: Q04DX003 (ip), vehicle: saline 107 % of control | [8] 105 % of control | [9] 104 % of control | dose: 600.0 mg/kg/injection, schedule: Q04DX003 (ip), vehicle: saline 93 % of control

O=C(O)c1ccc(Cl)cc1Nc1ccc(F)cc1
inactive: [10] 100 % of control | dose: 100.0 mg/kg/injection, schedule: Q01DX009 (ip), vehicle: Klucel (hydroxypropylcellulose) (HPC) 96 % of control | [11] 100 % of control | [12] 100 % of control

OC1c2cc(Cl)cc(Cl)c2-c2c(Cl)cc(Cl)cc21
inactive: [5] 96 % of control | [7] 98 % of control | [9] 106 % of control

CC(C)=CCCC(O)C1CCC2C3CCC4CCCCC4(C)C3CCC12C (stereo not given)
inactive: dose: 100.0 mg/kg/injection, schedule: Q04DX002 (ip), vehicle: DMSO 96 % of control | dose: 200.0 mg/kg/injection, schedule: Q04DX002 (ip), vehicle: DMSO 96 % of control | dose: 400.0 mg/kg/injection, schedule: Q04DX002 (ip), vehicle: DMSO 92 % of control

O=S(=O)(Nc1ccccc1)c1ccc([As](=O)(O)O)cc1
inactive: [2] 103 % of control

CC(=O)OCC1OC(n2c(Br)nc3c(N)ncnc32)C(OC(C)=O)C1OC(C)=O (stereo not given)
inactive: [1] 98 % of control | dose: 100.0 mg/kg/injection, schedule: Q01DX001 (ip), vehicle: carboxymethylcellulose (CMC) 98 % of control | [2] 95 % of control | dose: 100.0 mg/kg/injection, schedule: Q01DX005 (ip), vehicle: saline 89 % of control | dose: 200.0 mg/kg/injection, schedule: Q01DX001 (ip), vehicle: carboxymethylcellulose (CMC) 95 % of control | [3] 104 % of control | dose: 200.0 mg/kg/injection, schedule: Q01DX005 (ip), vehicle: saline 93 % of control | dose: 400.0 mg/kg/injection, schedule: Q01DX001 (ip), vehicle: carboxymethylcellulose (CMC) 101 % of control

Nc1ccnc(SCc2ccc(Cl)cc2)n1
inactive: dose: 100.0 mg/kg/injection, schedule: Q04DX003 (ip), vehicle: gum acacia 105 % of control | dose: 200.0 mg/kg/injection, schedule: Q04DX003 (ip), vehicle: gum acacia 104 % of control | dose: 400.0 mg/kg/injection, schedule: Q04DX003 (ip), vehicle: gum acacia 98 % of control

COc1cc([N+](=O)[O-])c(C)cc1NCc1ccc(OC)c(OC)c1
inactive: dose: 50.0 mg/kg/injection, schedule: Q01DX009 (ip), vehicle: saline 96 % of control | [4] 94 % of control | [5] 97 % of control | [6] 91 % of control | [7] 98 % of control | [8] 94 % of control | [9] 89 % of control

CC(C(N)=O)N1C(=O)C2C3CCC(O3)C2C1=O (stereo not given)
inactive: [5] 97 % of control | [7] 97 % of control | [9] 97 % of control

COC(=O)/C=C1/OC(=O)CC1(C)C
inactive: [10] 106 % of control | dose: 100.0 mg/kg/injection, schedule: Q01DX009 (ip), vehicle: saline sonified 100 % of control | [11] 104 % of control | dose: 200.0 mg/kg/injection, schedule: Q01DX009 (ip), vehicle: saline sonified 96 % of control | [12] 107 % of control | dose: 400.0 mg/kg/injection, schedule: Q01DX009 (ip), vehicle: saline sonified 100 % of control
